Tested on: Human RSV-A (“Long” strain)
Test: RSV-A in vitro cytoprotection assay in HEp-2 cells (ATPlite readout)
Type: cell-based
Settings: human respiratory syncytial virus, 96 h, 4-day incubation, ATPlite cell viability (CPE protection)
Source text: RSV is a single stranded negative sense RNA virus that causes respiratory tract infections which can be dangerous to infants, the elderly, and immunosuppressed individuals. Currently there is no vaccine, and therapeutic options are both costly and of limited effectiveness. These approved treatments are Ribavirin, and Palivizumab/Synagis (a monoclonal antibody). RSV has two genotypes, A and B, which differ primarily in the structure of the virus' surface “G” attachment protein. Our current primary screen focusses on RSV-A and uses an in vitro cytoprotection assay where compounds are added in 2-fold dilutions to cells which are then subjected to fully replicative viral particles. Cell viability is measured several days later along with separate measurements of compound cytotoxicity. This report focuses on the results of our most recent screening of compounds.
HEp-2 cells, (originally derived from tumors grown in irradiated-cortisonised weanling rats that had been injected with epidermoid carcinoma tissue from a person's larynx, but later found to be indistinguishable from HeLa cells by PCR DNA analysis), were used for the culturing of genotype A, “Long” strain RSV. Flasks were inoculated with RSV and viral stocks were collected once cytopathic effect (CPE) was greater than 90%. Viral stocks in 25% sucrose media were snap frozen using liquid nitrogen to increase viral stability. Viral stock titers were quantified by tissue culture infectious dose 50% (TCID50) using 8,000 cells per well and 3-fold viral dilutions across a 96-well plate, cultured for 4 days.
Following extensive parameter testing, the final assay is run as follows: HEp-2 cells are seeded into the inner 60 wells of a 96-well plate at 8,000 cells per well in a volume of 50 μL using Growth Media (DMEM without phenol red, 1% L-Glut, 1% Penn/Strep, 1% nonessential amino acids, 10% FBS). 2-fold serial dilutions of control and test compounds are added to the wells in duplicate in a total volume of 25 μL. Viral stock is then added to the wells in a volume of […] the total volume of each well to 100 μL. Each 96-well plate has a control column of 6 wells with cells and virus but no compound (negative control, max CPE), a column with cells but no compound or virus (positive control, minimum CPE), and a column with no cells or virus or compound (background plate/reagent control). The control wells with cells but no virus are given an additional 25 uL of growth media containing an equal quantity of sucrose as those wells receiving the viral stock in order to keep consistent in media and volume conditions. The outer wells of the plate are filled with 125 μL of growth media to act as a thermal and evaporative moat around the test wells. Following a 4-day incubation period, the plates are read using ATPlite (50 uL added per well), which quantifies the amount of ATP (a measure of cell health) present in each well. Assay plates are read using the Envision luminometer. […] EC50 ranges are as follows: A<1 μM; B 1-5 μM; C>5 μM.

Compared with `O=C1Nc2ccccc2C(c2ccccc2)=C[C@H]1Nc1nnc(-c2nc(-c3cccnc3)sc2N2CCOCC2)o1` [Example 14, (R)-3-((5-(5-morpholino-2-(pyridin-3-yl)thiazol-4-yl)-1,3,4-oxadiazol-2-yl)amino)-5-phenyl-1,3-dihydro-2H-benzo[b]azepin-2-one], `O=C1Nc2ccccc2C(c2ccccc2)=C[C@@H]1Nc1nnc(-c2nc(-c3cccnc3)sc2N2CCOCC2)o1` [Example 13, (S)-3-((5-(5-morpholino-2-(pyridin-3-yl)thiazol-4-yl)-1,3,4-oxadiazol-2-yl)amino)-5-phenyl-1,3-dihydro-2H-benzo[b]azepin-2-one] is lower in EC50: 1000 to 5000 nM for the first, under 1000 nM for the second.

`N#Cc1cnc(-c2nnc(N[C@H]3C=C(c4ccccc4)c4ccccc4NC3=O)o2)c(N2CCOCC2)c1` [Example 8] and `C#Cc1cnc(-c2nnc(N[C@H]3C=C(c4ccccc4)c4ccccc4NC3=O)o2)c(N2CCOCC2)c1` [Example 6] cannot be ordered by EC50: under 1000 nM for the first, under 1000 nM for the second.

Compared with `O=C1Nc2ccccc2C(c2ccccc2)=C[C@@H]1Nc1nnc(-c2ncc(C3CCC3)cc2N2CCOCC2)o1` [Example 9], `O=C1Nc2ccccc2C(c2ccccc2)=C[C@@H]1Nc1nnc(-c2ncc(C3CC3)cc2N2CCOCC2)o1` [Example 5] is lower in EC50: 1000 to 5000 nM for the first, under 1000 nM for the second.

`O=C1Nc2ccccc2C(c2ccccc2)=C[C@@H]1Nc1nnc(-c2nc(C3CC3)sc2N2CCOCC2)o1` [Example 11, (S)-3-((5-(2-cyclopropyl-5-morpholinothiazol-4-yl)-1,3,4-oxadiazol-2-yl)amino)-5-phenyl-1,3-dihydro-2H-benzo[b]azepin-2-one] and `O=C1Nc2ccccc2C(c2ccccc2)=C[C@H]1Nc1nnc(-c2nc(C3CC3)sc2N2CCOCC2)o1` [Example 12, (R)-3-((5-(2-cyclopropyl-5-morpholinothiazol-4-yl)-1,3,4-oxadiazol-2-yl)amino)-5-phenyl-1,3-dihydro-2H-benzo[b]azepin-2-one] cannot be ordered by EC50: under 1000 nM for the first, under 1000 nM for the second.

`O=C(Nc1ccccc1F)N[C@H]1C=C(c2ccccc2)c2ccccc2NC1=O` [Example 15, (S)-1-(2-fluorophenyl)-3-(2-oxo-5-phenyl-2,3-dihydro-1H-benzo[b]azepin-3-yl)urea] and `O=C(N[C@H]1C=C(c2ccccc2)c2ccccc2NC1=O)c1ccccc1` [Example 17, (5)-N-(2-oxo-5-phenyl-2,3-dihydro-1H-benzo[b]azepin-3-yl)benzamide] cannot be ordered by EC50: over 5000 nM for the first, over 5000 nM for the second.

`O=C1Nc2ccccc2C(c2ccccc2)=C[C@@H]1Nc1nnc(-c2ncc(C(F)(F)F)cc2N2CCOCC2)o1` [Example 10] and `O=C1Nc2ccccc2C(c2ccccc2)=C[C@@H]1Nc1nnc(-c2ncc(Br)cc2N2CCOCC2)o1` [Example 7] cannot be ordered by EC50: under 1000 nM for the first, under 1000 nM for the second.

`O=C1Nc2ccccc2C(c2ccccc2)=C[C@@H]1Nc1nnc(-c2ccc(N3CCOCC3)cc2F)o1` [Example 3] and `O=C1Nc2ccccc2C(c2ccccc2)=C[C@@H]1Nc1nnc(-c2cccnc2N2CCOCC2)o1` [Example 4] fall in the same range of EC50: 1000 to 5000 nM for the first, 1000 to 5000 nM for the second.

`O=C1Nc2ccccc2C(c2ccccc2)=C[C@@H]1Nc1nnc(-c2cn(-c3ccccn3)nc2N2CCOCC2)o1` [Example 2] and `O=C1Nc2ccccc2C(c2ccccc2)=C[C@@H]1Nc1nnc(-c2ccc(F)cc2)o1` [Example 1, (S)-3-((5-(4-fluorophenyl)-1,3,4-oxadiazol-2-yl)amino)-5-phenyl-1,3-dihydro-2H-benzo[b]azepin-2-one] fall in the same range of EC50: 1000 to 5000 nM for the first, 1000 to 5000 nM for the second.

`O=C1Nc2ccccc2C(c2ccccc2)=C[C@@H]1Nc1nc2ccccc2o1` [Example 16, (S)-3-(benzo[d]oxazol-2-ylamino)-5-phenyl-1,3-dihydro-2H-benzo[b]azepin-2-one] showed an EC50 of over 5000 nM.

Reference: US10647711B2, “Azepin-2-one derivatives as RSV inhibitors” (Enanta Pharmaceuticals, Inc., priority 2017, dated 2020)
